Measurements taken from the NIST ThermoML archive (doi:10.1021/acs.jced.7b00347).

Assay: mn = molality of the nth substance listed, in mol/kg
Settings: for surface tension liquid-gas: Ring tensiometer; for electrical conductivity: 100 kPa, Liquid, Alternating current cell with electrodes

CCCCCCCC[NH+](CCO)CC(C)O.[Cl-] (centres undefined) + O
Settings | electrical conductivity [S/m] | surface tension liquid-gas [mN/m]
293.15 K, m1 = 1.867e-05 | – | 62.99
293.15 K, m1 = 1.87e-05 | 0.00057 | –
293.15 K, m1 = 3.733e-05 | – | 56.87
293.15 K, m1 = 3.99e-05 | 0.000652 | –
293.15 K, m1 = 6.12e-05 | 0.000733 | –
293.15 K, m1 = 8.25e-05 | 0.000815 | –
293.15 K, m1 = 9.334e-05 | – | 47.51
293.15 K, m1 = 0.0001038 | 0.000896 | –
293.15 K, m1 = 0.0001251 | 0.000978 | –
293.15 K, m1 = 0.0001464 | 0.00106 | –
293.15 K, m1 = 0.0001676 | 0.00114 | –
293.15 K, m1 = 0.0001867 | – | 40.52
293.15 K, m1 = 0.0001889 | 0.00122 | –
293.15 K, m1 = 0.0002102 | 0.0013 | –
293.15 K, m1 = 0.0002315 | 0.00138 | –
293.15 K, m1 = 0.0002528 | 0.00147 | –
293.15 K, m1 = 0.000274 | 0.00155 | –
293.15 K, m1 = 0.00028 | – | 36.28
293.15 K, m1 = 0.0002953 | 0.00163 | –
293.15 K, m1 = 0.0003166 | 0.00171 | –
293.15 K, m1 = 0.0003379 | 0.00179 | –
293.15 K, m1 = 0.0003592 | 0.00187 | –
293.15 K, m1 = 0.0003734 | – | 33.31
293.15 K, m1 = 0.0003805 | 0.00196 | –
293.15 K, m1 = 0.0004017 | 0.00204 | –
293.15 K, m1 = 0.000423 | 0.00212 | –
293.15 K, m1 = 0.0004436 | – | 31.33
293.15 K, m1 = 0.0004443 | 0.0022 | –
293.15 K, m1 = 0.0004687 | 0.00226 | –
293.15 K, m1 = 0.0004932 | 0.00233 | –
293.15 K, m1 = 0.0005177 | 0.00239 | –
293.15 K, m1 = 0.0005421 | 0.00246 | –
293.15 K, m1 = 0.0005666 | 0.00252 | –
293.15 K, m1 = 0.000591 | 0.00259 | –
293.15 K, m1 = 0.0006155 | 0.00266 | –
293.15 K, m1 = 0.0006399 | 0.00272 | –
293.15 K, m1 = 0.0006644 | 0.00279 | –
293.15 K, m1 = 0.0006888 | 0.00285 | –
293.15 K, m1 = 0.0007133 | 0.00292 | –
293.15 K, m1 = 0.0007378 | 0.00298 | –
293.15 K, m1 = 0.0007622 | 0.00305 | –
293.15 K, m1 = 0.0007867 | 0.00312 | –
293.15 K, m1 = 0.0008111 | 0.00318 | –
293.15 K, m1 = 0.0008356 | 0.00325 | –
293.15 K, m1 = 0.00086 | 0.00331 | –
293.15 K, m1 = 0.0008845 | 0.00338 | –
293.15 K, m1 = 0.0009089 | 0.00345 | –
293.15 K, m1 = 0.0009334 | 0.00352 | 30.74
293.15 K, m1 = 0.001867 | – | 30.15
293.15 K, m1 = 0.0028 | – | 29.89
293.15 K, m1 = 0.003733 | – | 30
298.15 K, m1 = 1.867e-05 | – | 58.01
298.15 K, m1 = 1.87e-05 | 0.00071 | –
298.15 K, m1 = 3.733e-05 | – | 52.03
298.15 K, m1 = 3.79e-05 | 0.000793 | –
298.15 K, m1 = 5.71e-05 | 0.000877 | –
298.15 K, m1 = 7.64e-05 | 0.00096 | –
298.15 K, m1 = 9.334e-05 | – | 43.52
298.15 K, m1 = 9.56e-05 | 0.00104 | –
298.15 K, m1 = 0.0001148 | 0.00113 | –
298.15 K, m1 = 0.000134 | 0.00121 | –
298.15 K, m1 = 0.0001533 | 0.00129 | –
298.15 K, m1 = 0.0001725 | 0.00138 | –
298.15 K, m1 = 0.0001867 | – | 36.81
298.15 K, m1 = 0.0001917 | 0.00146 | –
298.15 K, m1 = 0.0002109 | 0.00154 | –
298.15 K, m1 = 0.0002302 | 0.00163 | –
298.15 K, m1 = 0.0002494 | 0.00171 | –
298.15 K, m1 = 0.0002686 | 0.00179 | –
298.15 K, m1 = 0.00028 | – | 33.44
298.15 K, m1 = 0.0002879 | 0.00188 | –
298.15 K, m1 = 0.0003071 | 0.00196 | –
298.15 K, m1 = 0.0003263 | 0.00204 | –
298.15 K, m1 = 0.0003455 | 0.00213 | –
298.15 K, m1 = 0.0003648 | 0.00221 | –
298.15 K, m1 = 0.000384 | 0.0023 | –
298.15 K, m1 = 0.0004032 | 0.00238 | –
298.15 K, m1 = 0.0004088 | – | 30.57
298.15 K, m1 = 0.0004364 | 0.00249 | –
298.15 K, m1 = 0.0004695 | 0.0026 | –
298.15 K, m1 = 0.0005026 | 0.00271 | –
298.15 K, m1 = 0.0005358 | 0.00282 | –
298.15 K, m1 = 0.0005689 | 0.00294 | –
298.15 K, m1 = 0.000602 | 0.00305 | –
298.15 K, m1 = 0.0006352 | 0.00316 | –
298.15 K, m1 = 0.0006683 | 0.00327 | –
298.15 K, m1 = 0.0007014 | 0.00338 | –
298.15 K, m1 = 0.0007346 | 0.00349 | –
298.15 K, m1 = 0.0007677 | 0.00361 | –
298.15 K, m1 = 0.0008009 | 0.00372 | –
298.15 K, m1 = 0.000834 | 0.00383 | –
298.15 K, m1 = 0.0008671 | 0.00394 | –
298.15 K, m1 = 0.0009003 | 0.00405 | –
298.15 K, m1 = 0.0009334 | 0.00417 | 29.9
298.15 K, m1 = 0.001867 | – | 29.43
298.15 K, m1 = 0.0028 | – | 29
298.15 K, m1 = 0.003733 | – | 28.91
